In US9896441B2 (Lycera Corporation, priority 2014, dated 2018):

How the values were obtained:
RORγ-LBD = target: T1, RORγ-LBD (Homo sapiens, UniProt P51449); test: RORγ-Ligand Binding Domain (LBD) TR-FRET Assay; assay type: biochemical; conditions: for TR-FRET Assay Max Response: maximum response;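 on TR-FRET Assay Max Response: 665/615 nm signal ratio set to 100 without ursolic acid or test compound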
T1 construct: made in house; host or cells: SF9 cells (baculovirus); used as diluted lysate
T1 sequence (P51449 269-508 limits assumed): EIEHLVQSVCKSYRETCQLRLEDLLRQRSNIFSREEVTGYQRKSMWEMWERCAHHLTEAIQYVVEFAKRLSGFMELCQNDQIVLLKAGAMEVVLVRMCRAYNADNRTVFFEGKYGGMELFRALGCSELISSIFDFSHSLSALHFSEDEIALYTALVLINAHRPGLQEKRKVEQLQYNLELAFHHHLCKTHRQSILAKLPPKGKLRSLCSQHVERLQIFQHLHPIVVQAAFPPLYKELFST
In short: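 His-tagged RORγ-LBD from SF9 baculovirus lysate, ~3 nM final, in 50 mM Tris pH 7.0, 50 mM KCl, 1 mM EDTA, 0.1 mM DTT, 0.01% BSA. Biotinylated SRC1 LXXLL peptide at 200 nM final with 2 μM ursolic acid; TR-FRET read-out, 1% DMSO final.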

Gal4-RORγ-LBD = target: T2, Gal4-RORγ-LBD (Homo sapiens, UniProt P51449); test: Gal4-RORγ Luciferase Reporter Assay in HEK-293T Cells; assay type: cell-based; conditions: HEK-293 cells, luciferase reporter; for Gal4-RORγ Assay Max Response: maximum response
T2 construct: expressed in transfected cells
T2 sequence (P51449 269-508 limits assumed): T1 sequence (P51449 269-508 limits assumed)
In short: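 HEK-293 cells were co-transfected with Gal4-RORγ-LBD and a Gal4-luciferase reporter, then exposed overnight at 37 °C to compounds with […] ursolic acid present (0.2% DMSO). Luminescence was read with One-Glo after 10 min at RT, untreated signal was set as 100, and Max Response was taken as the upper plateau of a 4-parameter logistic fit.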

| Structure (SMILES) | EC50 (RORγ-LBD; RORγ-LBD TR-FRET assay) [nM] | TR-FRET Assay Max Response (RORγ-LBD; RORγ-LBD TR-FRET assay) | EC50 (Gal4-RORγ-LBD; in presence of ursolic acid) [nM] | Gal4-RORγ Assay Max Response (Gal4-RORγ-LBD; in presence of ursolic acid) | EC50 (RORγ-LBD; RORγ-LBD TR-FRET) [nM] | EC50 (Gal4-RORγ-LBD; with ursolic acid) [nM] |
| --- | --- | --- | --- | --- | --- | --- |
| COc1cc(S(=O)(=O)N2C[C@H](CCNC(C)=O)Oc3ccc(/C=C(\C)c4c(F)cccc4Cl)cc32)ccc1F [Example 116B, (S,E)-N-(2-(6-(2-(2-chloro-6-fluorophenyl)prop-1-en-1-yl)-4-((4-fluoro-3-methoxyphenyl)-sulfonyl)-3,4-dihydro-2H-benzo[b][1,4]oxazin-2-yl)ethyl)acetamide] | < 500 | *** (a value in the range of greater than 150 to 200) | < 500 | * (a value in the range of 30 to 90) | – | – |
| C/C(=C\c1ccc2c(c1)N(S(=O)(=O)c1cccc(C(F)(F)F)c1)[C@H](C)[C@H](NC(=O)N(C)C)C2)c1c(F)cccc1Cl [Example 146, 3-((2R,3R)-7-((E)-2-(2-Chloro-6-fluorophenyl)prop-1-en-1-yl)-2-methyl-1-((3-(trifluoromethyl)phenyl)sulfonyl)-1,2,3,4-tetrahydroquinolin-3-yl)-1,1-dimethylurea] | < 500 | ** (a value in the range of greater than 90 to 150) | > 10000 | – | – | – |
| CC(=O)N[C@H](C)[C@H]1CN(S(=O)(=O)c2cccc(C(F)(F)F)c2)c2cc(/C=C(\C)c3c(F)cccc3Cl)ccc2O1 [Example 103, N—((R)-1-((R)-6-((E)-2-(2-Chloro-6-fluorophenyl)prop-1-en-1-yl)-4-((3-(trifluoromethyl)phenyl)sulfonyl)-3,4-dihydro-2H-benzo[b][1,4]oxazin-2-yl)ethyl)acetamide] | – | – | – | – | < 500 | < 500 |
| CCOC(=O)C1CCN(CC[C@H]2CN(S(=O)(=O)c3cccc(C(F)(F)F)c3)c3cc(/C=C(\C)c4c(F)cccc4Cl)ccc3O2)CC1 [Example 119F, ethyl (S,E)-1-(2-(6-(2-(2-chloro-6-fluorophenyl)prop-1-en-1-yl)-4-((3-(trifluoromethyl)phenyl)sulfonyl)-3,4-dihydro-2H-benzo[b][1,4]oxazin-2-yl)ethyl)piperidine-4-carboxylate] | < 500 | *** (a value in the range of greater than 150 to 200) | > 10000 | – | – | – |
| CCn1cc(S(=O)(=O)N2C[C@H]([C@H](C)O)Oc3ccc(/C=C(\C)c4c(F)cccc4Cl)cc32)c(Cl)n1 [Example 97, (S)-1-((R)-4-((3-Chloro-1-ethyl-1H-pyrazol-4-yl)sulfonyl)-6-((E)-2-(2-chloro-6-fluorophenyl)prop-1-en-1-yl)-3,4-dihydro-2H-benzo[b][1,4]oxazin-2-yl)ethan-1-ol] | – | – | – | – | < 500 | < 500 |
| COC(=O)CC[C@H]1CN(S(=O)(=O)c2cccc(C(F)(F)F)c2)c2cc(/C=C(\C)c3c(C)noc3C)ccc2O1 [Example 86AD, (S,E)-methyl 3-(6-(2-(3,5-dimethylisoxazol-4-yl)prop-1-en-1-yl)-4-((3-(trifluoromethyl)-phenyl)sulfonyl)-3,4-dihydro-2H-benzo[b][1,4]oxazin-2-yl)-propanoate] | – | – | – | – | < 500 | 500 to 5000 |
| C/C(=C\c1cc2c(cc1C)O[C@@H](CCC(=O)O)CN2S(=O)(=O)c1cccc(C(F)(F)F)c1)c1c(F)cccc1Cl [Example 56, (S,E)-3-(6-(2-(2-Chloro-6-fluorophenyl)prop-1-en-1-yl)-7-methyl-4-((3-(trifluoromethyl)phenyl)sulfonyl)-3,4-dihydro-2H-benzo[b][1,4]oxazin-2-yl)propanoic acid] | – | – | – | – | < 500 | > 10000 |
| CCOc1nn(CC)cc1S(=O)(=O)N1C[C@H](CCC(=O)O)Oc2ccc(/C=C/c3ccccn3)cc21 [Example 89E, (S,E)-3-(4-((3-ethoxy-1-ethyl-1H-pyrazol-4-yl)sulfonyl)-6-(2-(pyridin-2-yl)vinyl)-3,4-dihydro-2H-benzo[b][1,4]oxazin-2-yl)propanoic acid] | – | – | – | – | > 10000 | > 10000 |
| C/C(=C\c1ccc2c(c1)C(S(=O)(=O)c1cccc(C(F)(F)F)c1)CC(CCC(=O)O)O2)c1c(F)cccc1Cl (stereo not shown) [Example 186I, (E)-3-(6-(2-(2-chloro-6-fluorophenyl)prop-1-en-1-yl)-4-((3-(trifluoromethyl)phenyl)-sulfonyl)chroman-2-yl)propanoic acid] | < 500 | ** (a value in the range of greater than 90 to 150) | < 500 | ** (a value in the range of greater than 90 to 150) | – | – |
| O=C(O)CC[C@H]1CN(S(=O)(=O)c2cc(C(F)(F)F)cnc2OCC(O)CO)c2cc(/C=C/c3c(F)cccc3Cl)ccc2O1 (stereo partly drawn) [Example 89FJ, 3-((2S)-6-((E)-2-chloro-6-fluorostyryl)-4-((2-(2,3-dihydroxypropoxy)-5-(trifluoromethyl)pyridin-3-yl)sulfonyl)-3,4-dihydro-2H-benzo[b][1,4]oxazin-2-yl)propanoic acid] | – | – | – | – | < 500 | 500 to 5000 |
| COC(=O)CO[C@@H]1Cc2ccc(/C=C(\C)c3c(F)cccc3Cl)cc2N(S(=O)(=O)c2cccc(C(F)(F)F)c2)C1 [Example 173D, methyl (R,E)-2-((7-(2-(2-chloro-6-fluorophenyl)prop-1-en-1-yl)-1-((3-(trifluoromethyl)-phenyl)sulfonyl)-1,2,3,4-tetrahydroquinolin-3-yl)oxy)acetate] | < 500 | ** (a value in the range of greater than 90 to 150) | < 500 | ** (a value in the range of greater than 90 to 150) | – | – |
| Cn1ncnc1/C=C/c1ccc2c(c1)N(S(=O)(=O)c1cccc(C(F)(F)F)c1)C[C@H](CCC(=O)O)O2 [Example 89CJ, (S,E)-3-(6-(2-(1-methyl-1H-1,2,4-triazol-5-yl)vinyl)-4-((3-(trifluoromethyl)phenyl)sulfonyl)-3,4-dihydro-2H-benzo[b][1,4]-oxazin-2-yl)propanoic acid] | – | – | – | – | > 10000 | > 10000 |
| COC(=O)CC[C@H]1CN(S(=O)(=O)c2cccc(OC(F)F)c2)c2cc(/C=C(\C)c3c(F)cccc3Cl)cc(F)c2O1 [Example 51, Methyl (S,E)-3-(6-(2-(2-chloro-6-fluorophenyl)prop-1-en-1-yl)-4-((3-(difluoromethoxy)phenyl)sulfonyl)-8-fluoro-3,4-dihydro-2H-benzo[b][1,4]oxazin-2-yl)propanoate] | – | – | – | – | < 500 | < 500 |
| CCOc1ncc(Cl)cc1S(=O)(=O)N1C[C@H](CCC(=O)OC)Oc2ccc(/C=C/c3c(F)cccc3Cl)cc21 [Example 89CW, methyl (S,E)-3-(4-((5-chloro-2-ethoxypyridin-3-yl)sulfonyl)-6-(2-chloro-6-fluorostyryl)-3,4-dihydro-2H-benzo[b][1,4]oxazin-2-yl)propanoate] | – | – | – | – | < 500 | 500 to 5000 |
| COC(=O)CC[C@H]1CN(S(=O)(=O)c2cn(C(F)F)nc2C)c2cc(/C=C(\C)c3c(F)cccc3Cl)ccc2O1 [Example 86X, (S)-methyl 3-(6-(2-(2-chloro-6-fluorophenyl)prop-1-en-1-yl)-4-((1-(difluoromethyl)-3-methyl-1H-pyrazol-4-yl)sulfonyl)-3,4-dihydro-2H-benzo[b][1,4]oxazin-2-yl)propanoate] | – | – | – | – | < 500 | 500 to 5000 |
| C/C(=C\c1ccc2c(c1)N(S(=O)(=O)c1cc(C(F)(F)F)cnc1OCCO)C[C@H](CCC(=O)O)O2)c1c(F)cccc1Cl [Example 71, (S,E)-3-(6-(2-(2-Chloro-6-fluorophenyl)prop-1-en-1-yl)-4-((2-(2-hydroxyethoxy)-5-(trifluoromethyl)pyridin-3-yl)sulfonyl)-3,4-dihydro-2H-benzo[b][1,4]oxazin-2-yl)propanoic acid] | – | – | – | – | < 500 | < 500 |
